In US20070004653A1, “Stable lyophilized anthracycline glycosides” (priority 2005, published 2007):

Columns and labels:
[1] = Purification of Epirubicin HCl: solution warmed to 60° C., dimer and aglycone; type: physicochemical; settings: for dimer content / epirubicin aglycone: cooled to 50-60° C.
Procedure: Epirubicin hydrochloride (1550 mg) (containing epirubicin aglycone 0.04% and dimer 0.8%) was dissolved in water (100 ml) and the pH was corrected to 3.2-3.8 with hydrochloric acid at room temperature. The solution was then warmed in about ½ hour to 60° C.-65° C. and then maintained at tis temperature for 1 hour and then the solution was cooled to 50-60° C. At the same time, the pH was corrected to 4.5-5.0 with sodium hydroxide (at this point epirubicin aglycone was about 0,10% and dimer content<0,10%). Then the solution was quickly transferred to a cold container.
Epirubicin hydrochloride (1550 mg) (containing epirubicin aglycone 0.04% and dimer 0.8%) was dissolved in water (100 ml) and the pH corrected to 3.2-3.8 with hydrochloric acid at room temperature (by means of 30 microliters of a 1 M aqueous solution). The solution was quickly warmed (in less than ½ hour) to 60° C.-65° C. and then maintained at this temperature for 45 minutes and then the solution was cooled to 50-60° C. At the same time, the pH was corrected to 4.5-5.0 with AMBERLITE® IRA-67 free base (0,18 ml of resin 1,6M) (at this point epirubicin aglycone was about 0,09% and dimer content<0,10%). Then the solution was quickly filtered and then transferred into a cold container.

[2] = Preparation of stable lyophilized anthracycline glycoside hydrochlorides: aglycone and dimer in the lyophilized product; type: physicochemical
Procedure: Idarubicin hydrochloride (500 mg) was dissolved in water (50 ml) and acetic acid and ammonium acetate (both 1.5% molar amount with respect to the molar amount of idarubicin hydrochloride) were added. The solution was frozen and lyophilized.
Idarubicin hydrochloride (500 mg) was dissolved in water (50 ml) and acetic acid and ammonium acetate (both 1.5% molar amount with respect to the molar amount of idarubicin hydrochloride) were added. Charcoal was then added (100 g) and the solution was stirred for two hours. After that, the suspension was filtered through 0.4 micron membrane and then the solution was frozen and lyophilized.
Doxorubicin hydrochloride (500 mg) was dissolved in water (20 ml) and the pH corrected to 3.5 with acetic acid at room temperature. The solution was then warmed to 60° C. for 2 hours and then ammonium acetate (1.5% molar amount with respect to the molar amount of doxorubicin hydrochloride) was added. Then the solution was quickly frozen and lyophilized.
Epirubicin hydrochloride (1550 mg) was dissolved in water (100 ml) and the pH corrected to 3.2-3.8 with hydrochloric acid at room temperature. The solution was then warmed to 60° C.-65° C. for 1 hours and then the solution was cooled to 50-60° C. At the same time, the pH was corrected to 4.5-5.0 with sodium hydroxide. Then the solution was quickly frozen and lyophilized.
Idarubicin hydrochloride (5.0 g) was dissolved in water (500 ml). Then 58 microlitres of AMBERLITE® IRA-67 (1.6M) acetate (meaning 1.0% molar amount with respect to the molar amount of idarubicin hydrochloride) and 4.5 mg of acetic acid (meaning 0.8% molar amount with respect to the molar amount of idarubicin hydrochloride) were added. The suspension was slurried for two hours, then filtered, frozen and lyophilized.
Doxorubicin hydrochloride (5.0 g) was dissolved in water (200 ml) and the pH corrected to 4.6-4.8 with IN hydrochloric acid at room temperature. Then 80 microlitres of AMBERLITE® IRA-67 (1.6M) acetate (meaning 1.5% molar amount with respect to the molar amount of doxorubicin hydrochloride) was added. The solution was then filtered, frozen and lyophilized.
Epirubicin hydrochloride (1550 mg) was dissolved in water (100 ml) and the pH corrected to 3.2-3.8 with hydrochloric acid at room temperature. The solution was warmed to 60° C.-65° C. for 1 hour and then the solution was cooled to 50-60° C. At the same time, the pH was corrected to 4.5-5.0 with AMBERLITE® IRA-67 free base. Then the solution was quickly filtered, frozen, and lyophilized.

[3] = cited from earlier work
[4] = cited from earlier work; remark: listed apart in the source
[5] = Example 36: 1550 mg in water (100 ml), t = 0, pH 3.6, 20° C.
[6] = Example 36: after 1 hour at 60° C.-65° C., pH corrected to 4.5-5.0 with sodium hydroxide
[7] = Example 36: final, pH 4.8 (sodium hydroxide), 10° C.
[8] = Example 37: 1550 mg in water (100 ml), t = 0, pH 3.6, 20° C.
[9] = Example 37: Final, pH 4.7 (AMBERLITE IRA-67 free base), 10° C.
[10] = Example 37: after 45 minutes at 60° C.-65° C., pH corrected to 4.5-5.0 with AMBERLITE IRA-67 free base
[11] = starting Epirubicin hydrochloride (1550 mg) before dissolving
[12] = Example 41: pH 3.2-3.8, 60° C.-65° C. for 1 hour, pH 4.5-5.0 with sodium hydroxide, frozen and lyophilized
[13] = Example 44: pH 3.2-3.8, 60° C.-65° C. for 1 hour, pH 4.5-5.0 with AMBERLITE IRA-67 free base, filtered, frozen, lyophilized

COc1cccc2c1C(=O)c1c(O)c3c(c(O)c1C2=O)C[C@@](O)(C(=O)CO)C[C@@H]3O[C@H]1CC(N)[C@@H](O)C(C)O1.Cl (stereo in doubt) [Epirubicin HCl, epirubicin hydrochloride]
% aglycone [1, 5]: 0.04% | % dimer content [1, 5]: 0.80% | % aglycone ([1]; Example 36: 15 min, 60° C.): 0.06% | % dimer content ([1]; Example 36: 15 min, 60° C.): 0.38% | % aglycone ([1]; Example 36: 30 min, 60° C.): 0.07% | % dimer content ([1]; Example 36: 30 min, 60° C.): 0.18% | % aglycone ([1]; Example 36: 45 min, 60° C.): 0.09% | % dimer content ([1]; Example 36: 45 min, 60° C.): 0.11% | % aglycone ([1]; Example 36: 60 min, 60° C.): 0.11% | % dimer content ([1]; Example 36: 60 min, 60° C.): 0.08% | % aglycone ([1]; Example 36: T = 0, 60° C.): 0.04% | % dimer content ([1]; Example 36: T = 0, 60° C.): 0.74% | dimer content [1, 6]: < 0,10% | epirubicin aglycone [1, 6]: about 0,10% | % aglycone [1, 7]: 0.11% | % dimer content [1, 7]: 0.08% | % aglycone [1, 8]: 0.04% | % dimer content [1, 8]: 0.80% | % aglycone ([1]; Example 37: 10 min, 60° C.): 0.05% | % dimer content ([1]; Example 37: 10 min, 60° C.): 0.38% | % aglycone ([1]; Example 37: 20 min, 60° C.): 0.07% | % dimer content ([1]; Example 37: 20 min, 60° C.): 0.18% | % aglycone ([1]; Example 37: 30 min, 60° C.): 0.09% | % dimer content ([1]; Example 37: 30 min, 60° C.): 0.11% | % aglycone ([1]; Example 37: 40 min, 60° C.): 0.10% | % dimer content ([1]; Example 37: 40 min, 60° C.): 0.08% | % aglycone [1, 9]: 0.10% | % dimer content [1, 9]: 0.08% | % aglycone ([1]; Example 37: T = 0, 60° C.): 0.05% | % dimer content ([1]; Example 37: T = 0, 60° C.): 0.76% | dimer content [1, 10]: < 0,10% | epirubicin aglycone [1, 10]: about 0,09% | dimer contained [1, 11]: 0.8% | epirubicin aglycone contained [1, 11]: 0.04% | aglycone contained in lyophilized product [2, 12]: 0.12% | dimer contained in lyophilized product [2, 12]: 0.1% | aglycone contained in lyophilized product [2, 13]: 0.10% | dimer contained in lyophilized product [2, 13]: 0.10% | pH in a 0.5% w/v solution in water [3]: 4-5.5 | pKa in water [4]: 7.7
